Test results published in patent publication US20210379066A1, “COMBINATIONS OF POSITIVE ALLOSTERIC MODULATORS AND NICOTINIC ACETYLCHOLINE RECEPTOR AGONISTS FOR TREATING OCULAR CONDITIONS” (Oyster Point Pharma, Inc., priority 2018, published 2021).
“Also recorded” adds a separate entry of the source. Read-outs that look alike come from different tables or passages of the source. Each block holds one molecule with its values, some of them ahead of it.

Columns and labels:
Type in all cases: cell-based
[1] = target: T1, human alpha4beta2 nAChRs (Homo sapiens, UniProt P17787+P43681); assay: Desensitization by sustained (1 hour) agonist exposure and recovery, without and with PAM, Xenopus oocytes (Example 1); conditions: no PAM; for desensitization / inhibition of the response by sustained agonist exposure: 1 hour exposure, 1 mM compound 1 hemi-galactarate dihydrate or 300 μM varenicline tartrate; for recovery of the response after wash: after 1 hour agonist exposure, 3 hours wash
T1 construct: expressed in transfected cells; host or cells: Xenopus laevis oocytes (cDNA injection)
T1 sequence (P43681 29-627 limits assumed): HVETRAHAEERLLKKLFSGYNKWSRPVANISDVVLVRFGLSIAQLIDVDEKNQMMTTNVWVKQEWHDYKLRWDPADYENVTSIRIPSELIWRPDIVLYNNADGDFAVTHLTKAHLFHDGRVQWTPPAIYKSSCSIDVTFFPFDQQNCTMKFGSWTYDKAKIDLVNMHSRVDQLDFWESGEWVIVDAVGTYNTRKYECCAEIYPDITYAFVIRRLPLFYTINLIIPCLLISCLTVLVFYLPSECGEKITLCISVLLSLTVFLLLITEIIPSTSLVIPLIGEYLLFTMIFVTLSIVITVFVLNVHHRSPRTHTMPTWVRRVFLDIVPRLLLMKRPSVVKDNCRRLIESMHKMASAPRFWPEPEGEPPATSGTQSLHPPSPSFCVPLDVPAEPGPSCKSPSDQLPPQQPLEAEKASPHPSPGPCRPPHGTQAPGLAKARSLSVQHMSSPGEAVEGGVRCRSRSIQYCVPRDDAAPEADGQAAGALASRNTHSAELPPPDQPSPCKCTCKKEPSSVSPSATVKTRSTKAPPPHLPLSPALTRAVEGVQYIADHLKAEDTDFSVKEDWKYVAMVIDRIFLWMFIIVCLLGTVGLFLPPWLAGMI
T1 sequence (P17787 26-502): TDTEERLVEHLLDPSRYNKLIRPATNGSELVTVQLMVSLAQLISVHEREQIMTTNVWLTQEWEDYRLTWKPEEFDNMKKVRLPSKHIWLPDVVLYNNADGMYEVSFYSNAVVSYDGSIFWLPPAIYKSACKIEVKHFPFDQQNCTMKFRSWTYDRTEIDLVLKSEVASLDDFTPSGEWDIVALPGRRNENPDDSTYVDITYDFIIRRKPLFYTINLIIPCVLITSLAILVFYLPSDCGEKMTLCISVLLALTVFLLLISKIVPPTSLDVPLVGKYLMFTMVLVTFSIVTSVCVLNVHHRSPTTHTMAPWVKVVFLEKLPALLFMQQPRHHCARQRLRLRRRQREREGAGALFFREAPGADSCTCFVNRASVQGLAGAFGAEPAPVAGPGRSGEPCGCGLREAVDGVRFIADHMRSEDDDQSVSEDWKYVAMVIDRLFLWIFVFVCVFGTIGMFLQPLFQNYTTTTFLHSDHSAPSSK

[2] = target: T2, human alpha3beta4 nAChRs (Homo sapiens, UniProt P30926+P32297); assay: Antagonistic activity / desensitization, cumulative exposure in the low concentration range (Example 2); conditions: concentrations up to 300 nM
T2 construct: expressed in transfected cells; host or cells: Xenopus laevis oocytes (cDNA injection)
T2 sequence (P32297 32-505): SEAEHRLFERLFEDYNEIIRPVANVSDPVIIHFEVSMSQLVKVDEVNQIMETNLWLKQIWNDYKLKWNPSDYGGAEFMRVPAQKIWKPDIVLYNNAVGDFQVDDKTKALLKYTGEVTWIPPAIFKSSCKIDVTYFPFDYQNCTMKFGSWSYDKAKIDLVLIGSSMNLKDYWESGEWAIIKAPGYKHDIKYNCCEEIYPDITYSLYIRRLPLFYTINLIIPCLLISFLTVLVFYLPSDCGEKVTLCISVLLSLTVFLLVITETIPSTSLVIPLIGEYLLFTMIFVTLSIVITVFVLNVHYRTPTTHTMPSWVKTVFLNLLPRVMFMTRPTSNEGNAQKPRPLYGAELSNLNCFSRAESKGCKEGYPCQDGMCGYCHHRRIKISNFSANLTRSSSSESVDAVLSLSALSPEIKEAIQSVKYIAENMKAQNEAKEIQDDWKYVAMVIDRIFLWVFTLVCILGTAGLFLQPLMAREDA
T2 sequence (P30926 22-498): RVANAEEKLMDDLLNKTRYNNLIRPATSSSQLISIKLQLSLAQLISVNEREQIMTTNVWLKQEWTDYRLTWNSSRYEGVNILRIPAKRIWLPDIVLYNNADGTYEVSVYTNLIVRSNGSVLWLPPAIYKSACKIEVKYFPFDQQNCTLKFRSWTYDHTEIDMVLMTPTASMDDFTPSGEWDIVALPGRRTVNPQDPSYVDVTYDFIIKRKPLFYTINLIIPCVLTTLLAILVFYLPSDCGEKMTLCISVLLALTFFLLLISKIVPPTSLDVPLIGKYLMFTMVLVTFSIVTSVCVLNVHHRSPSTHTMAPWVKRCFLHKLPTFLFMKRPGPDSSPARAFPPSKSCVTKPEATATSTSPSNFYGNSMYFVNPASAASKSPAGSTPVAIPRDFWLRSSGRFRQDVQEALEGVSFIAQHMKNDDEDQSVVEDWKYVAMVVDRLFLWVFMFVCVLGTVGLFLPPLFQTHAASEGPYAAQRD

[3] = target: T3, human alpha3alpha5beta4 nAChRs (Homo sapiens, UniProt P30532+P30926+P32297); assay: as above; conditions: nanomolar range, up to 300 nM; dihydrate
T3 construct: expressed in transfected cells; host or cells: Xenopus laevis oocytes (cDNA injection)
T3 sequence (P32297 32-505): as the sequence (P32297 32-505) above
T3 sequence (P30532 23-468): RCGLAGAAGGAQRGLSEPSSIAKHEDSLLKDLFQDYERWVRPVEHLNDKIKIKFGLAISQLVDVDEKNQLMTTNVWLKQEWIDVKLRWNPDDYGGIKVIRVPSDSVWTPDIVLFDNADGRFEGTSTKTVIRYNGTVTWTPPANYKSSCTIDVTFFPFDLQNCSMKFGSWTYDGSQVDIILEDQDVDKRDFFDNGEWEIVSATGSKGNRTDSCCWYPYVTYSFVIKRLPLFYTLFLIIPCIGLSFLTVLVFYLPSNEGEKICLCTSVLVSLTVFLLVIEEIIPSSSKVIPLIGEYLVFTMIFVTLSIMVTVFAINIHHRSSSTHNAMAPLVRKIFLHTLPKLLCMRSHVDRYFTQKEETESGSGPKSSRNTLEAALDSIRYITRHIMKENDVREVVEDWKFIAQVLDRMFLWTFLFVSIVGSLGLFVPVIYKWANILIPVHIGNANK
T3 sequence (P30926 22-498): as the sequence (P30926 22-498) above

[4] = target: T1, human alpha4beta2 nAChRs; assay: as above; conditions: nanomolar range, up to 300 nM; dihydrate
[5] = target: T4, human alpha7 nAChRs (Homo sapiens, UniProt P36544); assay: as above; conditions: concentrations up to 300 nM; dihydrate
T4 construct: expressed in transfected cells; host or cells: Xenopus laevis oocytes (cDNA injection)
T4 sequence (P36544 23-502): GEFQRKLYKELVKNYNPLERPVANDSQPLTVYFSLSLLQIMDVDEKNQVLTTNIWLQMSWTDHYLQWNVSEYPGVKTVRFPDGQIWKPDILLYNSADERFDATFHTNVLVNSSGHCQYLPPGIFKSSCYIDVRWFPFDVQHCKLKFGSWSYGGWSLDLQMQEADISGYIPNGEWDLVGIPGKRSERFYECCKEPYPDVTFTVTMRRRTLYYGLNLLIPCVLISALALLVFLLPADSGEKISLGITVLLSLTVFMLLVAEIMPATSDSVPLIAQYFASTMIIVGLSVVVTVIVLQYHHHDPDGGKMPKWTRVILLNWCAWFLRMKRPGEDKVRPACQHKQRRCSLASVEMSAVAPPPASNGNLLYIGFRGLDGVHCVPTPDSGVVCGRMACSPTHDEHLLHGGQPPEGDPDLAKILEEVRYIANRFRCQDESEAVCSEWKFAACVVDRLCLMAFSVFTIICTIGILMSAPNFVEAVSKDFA

[6] = target: T5, human nAChR alpha3beta4 (Homo sapiens, UniProt P30926+P32297); assay: Agonist activity, two-electrode voltage clamp in Xenopus oocytes (Examples 2 and 5); conditions: for agonist character: versus ACh response
T5 construct: expressed in transfected cells; host or cells: Xenopus laevis oocytes (cDNA injection)
T5 sequence (P32297 32-505): as the sequence (P32297 32-505) above
T5 sequence (P30926 22-498): as the sequence (P30926 22-498) above
Method: (§1) All experiments were carried out at human nAChRs expressed in Xenopus oocytes using the method of cDNA expression. Xenopus oocytes were prepared and injected using standard procedures.
(§2) Briefly, ovaries were harvested from Xenopus Laevis females that have been deeply anesthetized by cooling at 4° C. and Tricaine methanesulfonate (MS-222 at a concentration of 150 mg/L) in sodium bicarbonate (300 mg/L). Once anesthetized the animal was decapitated and pithed following the rules of animal rights from the Geneva canton. A small piece of ovary was isolated for immediate preparation while the remaining part was placed at 4° C. in a sterile Barth solution containing in mM NaCl 88, KCl 1, NaHCO32.4, HEPES 10, MgSO4.7H2O 0.82, Ca(NO3)2.4H2O 0.33, CaCl2.6H2O 0.41, at pH 7.4, and supplemented with 20 μg/ml of kanamycin, 100 unit/ml penicillin. All recordings were performed at 18° C. and cells superfused with OR2 medium containing in mM: NaCl 88, KCl 2.5, HEPES 5, CaCl2.2H2O 1.8, MgCl2.6H2O 1, pH 7.4.
(§3) Currents evoked by ACh or other agonists were recorded using an automated process equipped with standard two-electrode voltage-clamp configuration (TEVC). Data were captured and analyzed using a HiQScreen proprietary data acquisition and analysis software running under Matlab (Mathworks Inc.).
(§4) See Example 1. […] The test concentration of acetylcholine chloride was 1280 micromolar.
(§5) Injections of cDNAs encoding for the human alpha3beta4, alpha3alpha5beta4, alpha4beta2, and alpha7 were performed in at least 95 oocytes were performed using a proprietary automated injection and receptor expression examined at least two days later. Oocytes were poked with two electrodes and their membrane potential maintained, unless indicated, at −80 mV throughout the experiment.
(§6) A protocol to determine agonistic activity in the oocytes expressing the nAChRs was developed. The cells were exposed to a series of increasing concentrations of a compound agonist for 10 seconds each at two minute intervals. The current evoked from exposure to the agonist at each concentration was recorded. For oocytes expressing alpha7 nAChRs, exposure to the agonist was reduced to 5 seconds. This process was repeated for each agonist tested against each type of nAChR expressing cell.
(§7) To evaluate the agonistic properties of compound 1 hemi-galactarate dihydrate a protocol of brief exposures to a series of growing concentrations of compound 1 hemi-galactarate dihydrate was used.
(§8) Agonist Preparation: See Example 1. […] The test concentration of acetylcholine chloride was 1280 micromolar.
as §5, with “Experimental Procedures: Injections” for “Injections”, “alpha4beta2, alpha4alpha6beta2,” for “alpha4beta2,”, “oocytes” for “oocytes were performed”, “injection device. Cellular” for “injection and”, “expression was” for “expression”
as §6, with “developed. Oocytes expressing a nAChR subtype were exposed to a brief test pulse of acetylcholine (1280 micromolar) while the holding current and response was evaluated. Cells displaying robust currents were washed for 90 seconds.” for “developed.”, “were then” for “were”, “nAChR” for “compound”, “intervals. The nAChR agonist test concentrations were 0.1, 0.3, 1, 3, 10, 30, 100, 300 (micromolar).” for “intervals.”

[7] = target: T6, human nAChR alpha7 (Homo sapiens, UniProt P36544); assay: as above; conditions: for agonist character: versus ACh response
T6 construct: expressed in transfected cells; host or cells: Xenopus laevis oocytes (cDNA injection)
T6 sequence (P36544 23-502): as the sequence (P36544 23-502) above
Method: as §1, §2, §3, §4, §5, §6, §7, §8
as §5, with “Experimental Procedures: Injections” for “Injections”, “alpha4beta2, alpha4alpha6beta2,” for “alpha4beta2,”, “oocytes” for “oocytes were performed”, “injection device. Cellular” for “injection and”, “expression was” for “expression”
as §6, with “developed. Oocytes expressing a nAChR subtype were exposed to a brief test pulse of acetylcholine (1280 micromolar) while the holding current and response was evaluated. Cells displaying robust currents were washed for 90 seconds.” for “developed.”, “were then” for “were”, “nAChR” for “compound”, “intervals. The nAChR agonist test concentrations were 0.1, 0.3, 1, 3, 10, 30, 100, 300 (micromolar).” for “intervals.”

[8] = target: T7, human nAChR alpha4beta2 (Homo sapiens, UniProt P17787+P43681); assay: as above; conditions: for EC50: Example 2; for effect on the subsequent ACh-evoked current: after exposure to the agonist concentration series; for agonist character: versus ACh response
T7 construct: expressed in transfected cells; host or cells: Xenopus laevis oocytes (cDNA injection)
T7 sequence (P43681 29-627 limits assumed): as the sequence (P43681 29-627 limits assumed) above
T7 sequence (P17787 26-502): as the sequence (P17787 26-502) above
Method: as §1, §2, §3, §4, §5, §6, §7, §8
as §5, with “Experimental Procedures: Injections” for “Injections”, “alpha4beta2, alpha4alpha6beta2,” for “alpha4beta2,”, “oocytes” for “oocytes were performed”, “injection device. Cellular” for “injection and”, “expression was” for “expression”
as §6, with “developed. Oocytes expressing a nAChR subtype were exposed to a brief test pulse of acetylcholine (1280 micromolar) while the holding current and response was evaluated. Cells displaying robust currents were washed for 90 seconds.” for “developed.”, “were then” for “were”, “nAChR” for “compound”, “intervals. The nAChR agonist test concentrations were 0.1, 0.3, 1, 3, 10, 30, 100, 300 (micromolar).” for “intervals.”

[9] = target: T8, human nAChR alpha3alpha5beta4 (Homo sapiens, UniProt P30532+P30926+P32297); assay: as above; conditions: for EC50: Example 2; for agonist character: versus ACh response
T8 construct: expressed in transfected cells; host or cells: Xenopus laevis oocytes (cDNA injection)
T8 sequence (P32297 32-505): as the sequence (P32297 32-505) above
T8 sequence (P30532 23-468): as the sequence (P30532 23-468) above
T8 sequence (P30926 22-498): as the sequence (P30926 22-498) above
Method: as §1, §2, §3, §4, §5, §6, §7, §8
as §5, with “Experimental Procedures: Injections” for “Injections”, “alpha4beta2, alpha4alpha6beta2,” for “alpha4beta2,”, “oocytes” for “oocytes were performed”, “injection device. Cellular” for “injection and”, “expression was” for “expression”
as §6, with “developed. Oocytes expressing a nAChR subtype were exposed to a brief test pulse of acetylcholine (1280 micromolar) while the holding current and response was evaluated. Cells displaying robust currents were washed for 90 seconds.” for “developed.”, “were then” for “were”, “nAChR” for “compound”, “intervals. The nAChR agonist test concentrations were 0.1, 0.3, 1, 3, 10, 30, 100, 300 (micromolar).” for “intervals.”

[10] = target: T1, human alpha4beta2 nAChRs; assay: Sustained exposure to 300 μM varenicline tartrate and its recovery (Example 2); conditions: 36 minutes wash
[11] = target: T2, human alpha3beta4 nAChRs; assay: as above
[12] = listed as Compound 1 hemi-galactarate dihydrate, dihydrate

Molecule: C(=C\[C@H]1CCNC1)/c1cncnc1 [compound 1 hemi-galactarate dihydrate, (R)-5-((E)-2-pyrrolidin-3-ylvinyl)pyrimidine hemigalactarate dihydrate]
desensitization / inhibition of the response by sustained agonist exposure ([1]; dihydrate): no long-lasting desensitization; also recorded: only a modest inhibition; also recorded: does not cause a long-lasting inhibition; also recorded: no long-lasting inhibition
recovery of the response after wash [1]: almost full recovery
response after 18 hours recovery ([1]; after 1 hour exposure to 1 mM agonist): significant increase of the response
inhibition of the ACh-evoked current by sustained exposure ([2]; dihydrate): insensitive; also recorded: no significant inhibition
inhibition of the ACh-evoked current by sustained exposure [3]: marked inhibition; also recorded: inhibits in a concentration-dependent manner
inhibition of the ACh-evoked current by sustained exposure [4]: marked inhibition; also recorded: inhibits in a concentration-dependent manner
inhibition of the ACh-evoked current by sustained exposure [5]: insensitive; also recorded: no significant inhibition
percent of the maximal ACh-evoked currents ([6]; ACh 1280 micromolar): about 94%
EC50 ([6]; read-out: EC50): 42.1 ± 5.36 µM
agonist character [6, 12]: almost as a full agonist
EC50 ([7]; Example 2, value for compound 1 salt only an estimation): 1260 ± 500 µM
percent of the maximal ACh-evoked current ([7]; at 300 μM (300 micromolar) agonist, dihydrate): 24%
agonist character ([7]; dihydrate): poor agonist
agonist character [7, 12]: more potent agonist than ACh
evoked currents larger than the maximal ACh responses [8]: about 2 fold
EC50 ([8]; read-out: EC50): 48.8 ± 17.4 µM
effect on the subsequent ACh-evoked current ([8]; dihydrate): enhanced
agonist character [8, 12]: more potent agonist than ACh
percent of the maximal ACh-evoked currents ([9]; ACh 1280 micromolar): about 94%
EC50 ([9]; read-out: EC50): 32.1 ± 2.16 µM
agonist character [9, 12]: almost as a full agonist

EC50 [6]: low micromolar range
agonist character [6]: partial agonist
EC50 [8]: low micromolar range
effect on the subsequent ACh-evoked current [8]: major inhibition
agonist character [8]: partial agonist
agonist character ([8]; listed as Varenicline tartrate): very poor agonist
EC50 [9]: low micromolar range
agonist character [9]: partial agonist
Molecule: varenicline tartrate [reference compound]
desensitization / inhibition of the response by sustained agonist exposure [1]: profound inhibition; also recorded: major desensitization; also recorded: sustained inhibition; also recorded: major inhibition
recovery of the response after wash [1]: could not be removed even after a three-hour wash period; also recorded: no significant recovery; also recorded: absence of recovery
inhibition of the ACh-evoked current by sustained exposure [2]: very modest effect; also recorded: no significant inhibition
recovery from desensitization [10]: absence of recovery; also recorded: cannot be recovered even after 36 minutes wash
recovery from desensitization ([11]; 300 μM, 36 minutes wash): absence of recovery; also recorded: cannot be recovered even after 36 minutes wash
response evoked by 300 μM agonist ([11]; applied during three minutes): larger current amplitude; also recorded: rather large response
